{"source": "PubChem BioAssay (NCI)", "assay_in_all_cases": "inhibition of tumour cell growth, NCI panel, 48 h", "key": {"HCT-15 colon": {"test_system": "HCT-15 colon"}, "MDA-MB-231 breast": {"test_system": "MDA-MB-231 breast"}, "NCI-H460 lung": {"test_system": "NCI-H460 lung"}, "RXF 393 renal": {"test_system": "RXF 393 renal"}, "SNB-19 CNS": {"test_system": "SNB-19 CNS"}, "SW-620 colon": {"test_system": "SW-620 colon"}, "UACC-257 melanoma": {"test_system": "UACC-257 melanoma"}}, "note": "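Step 1: Grow cells in 96-well plates. Step 2: Expose to compound for 48 hours at 5 concentrations. Step 3: Interpolate endpoints linearly; if unreached, use highest concentration. At the GI50, growth is halved. TGI: total growth inhibition.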"}
{"compound": "O=S(=O)(NCCCNc1cc(-c2cn(-c3ccccc3)nc2-c2cccc(O)c2)ccn1)c1ccc(Cl)cc1", "values": [{"measurement": "GI50", "setting": "HCT-15 colon", "result": 1.34, "unit": "µM"}, {"measurement": "TGI", "setting": "HCT-15 colon", "result": 3.45, "unit": "µM"}, {"measurement": "GI50", "setting": "MDA-MB-231 breast", "result": 1.81, "unit": "µM"}, {"measurement": "TGI", "setting": "MDA-MB-231 breast", "result": 4.69, "unit": "µM"}, {"measurement": "GI50", "setting": "NCI-H460 lung", "result": 1.68, "unit": "µM"}, {"measurement": "TGI", "setting": "NCI-H460 lung", "result": 3.32, "unit": "µM"}, {"measurement": "GI50", "setting": "RXF 393 renal", "result": 0.846, "unit": "µM"}, {"measurement": "TGI", "setting": "RXF 393 renal", "result": 2.8, "unit": "µM"}, {"measurement": "GI50", "setting": "SNB-19 CNS", "result": 2.68, "unit": "µM"}, {"measurement": "TGI", "setting": "SNB-19 CNS", "result": 8.37, "unit": "µM"}, {"measurement": "GI50", "setting": "SW-620 colon", "result": 1.62, "unit": "µM"}, {"measurement": "TGI", "setting": "SW-620 colon", "result": 3.54, "unit": "µM"}]}
{"compound": "CCCCCCCCCC(CCCC(O)CC(=O)O)OC1OC(COC2OC(C)C(O)C(O)C2O)C(O)C(O)C1OC1OC(CO)C(O)C(O)C1OC1OC(C)C(O)C(O)C1O", "note": "(centres undefined)", "values": [{"measurement": "GI50", "setting": "HCT-15 colon", "result": "> 40", "unit": "µM"}, {"measurement": "TGI", "setting": "HCT-15 colon", "result": "> 40", "unit": "µM"}, {"measurement": "GI50", "setting": "MDA-MB-231 breast", "result": "> 40", "unit": "µM"}, {"measurement": "TGI", "setting": "MDA-MB-231 breast", "result": "> 40", "unit": "µM"}, {"measurement": "GI50", "setting": "NCI-H460 lung", "result": "> 40", "unit": "µM"}, {"measurement": "TGI", "setting": "NCI-H460 lung", "result": "> 40", "unit": "µM"}, {"measurement": "GI50", "setting": "RXF 393 renal", "result": "> 40", "unit": "µM"}, {"measurement": "TGI", "setting": "RXF 393 renal", "result": "> 40", "unit": "µM"}, {"measurement": "GI50", "setting": "SNB-19 CNS", "result": "> 40", "unit": "µM"}, {"measurement": "TGI", "setting": "SNB-19 CNS", "result": "> 40", "unit": "µM"}, {"measurement": "GI50", "setting": "SW-620 colon", "result": "> 40", "unit": "µM"}, {"measurement": "TGI", "setting": "SW-620 colon", "result": "> 40", "unit": "µM"}, {"measurement": "GI50", "setting": "UACC-257 melanoma", "result": "> 40", "unit": "µM"}, {"measurement": "TGI", "setting": "UACC-257 melanoma", "result": "> 40", "unit": "µM"}]}
{"compound": "COc1cc(C2C(C#N)=C(N)Oc3cc(O)ccc32)cc(OC)c1OC", "note": "(centres undefined)", "values": [{"measurement": "GI50", "setting": "HCT-15 colon", "result": 0.539, "unit": "µM"}, {"measurement": "TGI", "setting": "HCT-15 colon", "result": "> 100", "unit": "µM"}, {"measurement": "GI50", "setting": "MDA-MB-231 breast", "result": 1.85, "unit": "µM"}, {"measurement": "TGI", "setting": "MDA-MB-231 breast", "result": "> 100", "unit": "µM"}, {"measurement": "GI50", "setting": "NCI-H460 lung", "result": 0.382, "unit": "µM"}, {"measurement": "TGI", "setting": "NCI-H460 lung", "result": "> 75.2", "unit": "µM"}, {"measurement": "GI50", "setting": "RXF 393 renal", "result": 0.362, "unit": "µM"}, {"measurement": "TGI", "setting": "RXF 393 renal", "result": 1.99, "unit": "µM"}, {"measurement": "TGI", "setting": "SNB-19 CNS", "result": "> 100", "unit": "µM"}, {"measurement": "GI50", "setting": "SW-620 colon", "result": 0.361, "unit": "µM"}, {"measurement": "TGI", "setting": "SW-620 colon", "result": "> 100", "unit": "µM"}, {"measurement": "GI50", "setting": "UACC-257 melanoma", "result": 0.401, "unit": "µM"}, {"measurement": "TGI", "setting": "UACC-257 melanoma", "result": "> 100", "unit": "µM"}]}
{"compound": "CC([O-])C(=O)[O-].NCC1CCC1CN.[Pt+4]", "note": "(centres undefined)", "values": [{"measurement": "GI50", "setting": "HCT-15 colon", "result": "> 10", "unit": "µM"}, {"measurement": "TGI", "setting": "HCT-15 colon", "result": "> 10", "unit": "µM"}, {"measurement": "GI50", "setting": "MDA-MB-231 breast", "result": "> 10", "unit": "µM"}, {"measurement": "TGI", "setting": "MDA-MB-231 breast", "result": "> 10", "unit": "µM"}, {"measurement": "GI50", "setting": "NCI-H460 lung", "result": "> 10", "unit": "µM"}, {"measurement": "TGI", "setting": "NCI-H460 lung", "result": "> 10", "unit": "µM"}, {"measurement": "GI50", "setting": "SNB-19 CNS", "result": "> 10", "unit": "µM"}, {"measurement": "TGI", "setting": "SNB-19 CNS", "result": "> 10", "unit": "µM"}, {"measurement": "GI50", "setting": "SW-620 colon", "result": "> 10", "unit": "µM"}, {"measurement": "TGI", "setting": "SW-620 colon", "result": "> 10", "unit": "µM"}, {"measurement": "GI50", "setting": "UACC-257 melanoma", "result": "> 10", "unit": "µM"}, {"measurement": "TGI", "setting": "UACC-257 melanoma", "result": "> 10", "unit": "µM"}]}
{"compound": "COC(=O)C1C2CCCN2OC1(C)CO", "note": "(centres undefined)", "values": [{"measurement": "TGI", "setting": "HCT-15 colon", "result": "> 100", "unit": "µM"}, {"measurement": "TGI", "setting": "MDA-MB-231 breast", "result": "> 100", "unit": "µM"}, {"measurement": "TGI", "setting": "NCI-H460 lung", "result": "> 100", "unit": "µM"}, {"measurement": "TGI", "setting": "SNB-19 CNS", "result": "> 100", "unit": "µM"}, {"measurement": "TGI", "setting": "SW-620 colon", "result": "> 100", "unit": "µM"}, {"measurement": "TGI", "setting": "UACC-257 melanoma", "result": "> 100", "unit": "µM"}]}
{"compound": "COc1ccc(-c2coc3cc(OC)cc(O)c3c2=O)cc1", "values": [{"measurement": "TGI", "setting": "HCT-15 colon", "result": "> 100", "unit": "µM"}, {"measurement": "TGI", "setting": "MDA-MB-231 breast", "result": "> 100", "unit": "µM"}, {"measurement": "TGI", "setting": "NCI-H460 lung", "result": "> 100", "unit": "µM"}, {"measurement": "TGI", "setting": "RXF 393 renal", "result": 83.1, "unit": "µM"}, {"measurement": "TGI", "setting": "SNB-19 CNS", "result": "> 100", "unit": "µM"}, {"measurement": "TGI", "setting": "SW-620 colon", "result": "> 100", "unit": "µM"}, {"measurement": "TGI", "setting": "UACC-257 melanoma", "result": "> 100", "unit": "µM"}]}
{"compound": "CC[C@@]1(O)C(=O)OCc2c1cc1n(c2=O)Cc2c-1nc1ccccc1c2/C=N/OC(C)(C)C", "values": [{"measurement": "GI50", "setting": "HCT-15 colon", "result": 0.082, "unit": "µM"}, {"measurement": "TGI", "setting": "HCT-15 colon", "result": 25.7, "unit": "µM"}, {"measurement": "GI50", "setting": "MDA-MB-231 breast", "result": 0.552, "unit": "µM"}, {"measurement": "TGI", "setting": "MDA-MB-231 breast", "result": 18.1, "unit": "µM"}, {"measurement": "GI50", "setting": "NCI-H460 lung", "result": "< 0.01", "unit": "µM"}, {"measurement": "TGI", "setting": "NCI-H460 lung", "result": 1.95, "unit": "µM"}, {"measurement": "GI50", "setting": "RXF 393 renal", "result": "< 0.01", "unit": "µM"}, {"measurement": "TGI", "setting": "RXF 393 renal", "result": 0.0639, "unit": "µM"}, {"measurement": "GI50", "setting": "SNB-19 CNS", "result": "< 0.01", "unit": "µM"}, {"measurement": "TGI", "setting": "SNB-19 CNS", "result": 10.9, "unit": "µM"}, {"measurement": "GI50", "setting": "SW-620 colon", "result": "< 0.011", "unit": "µM"}, {"measurement": "TGI", "setting": "SW-620 colon", "result": 14.2, "unit": "µM"}, {"measurement": "GI50", "setting": "UACC-257 melanoma", "result": 0.0666, "unit": "µM"}, {"measurement": "TGI", "setting": "UACC-257 melanoma", "result": 1.32, "unit": "µM"}]}
{"compound": "CC/C=C\\C/C=C\\C[C@H]1C/C=C2/C(=O)C=C[C@H]2C/C=C\\CCC(=O)O1", "values": [{"measurement": "GI50", "setting": "HCT-15 colon", "result": 2.23, "unit": "µM"}, {"measurement": "TGI", "setting": "HCT-15 colon", "result": 6, "unit": "µM"}, {"measurement": "GI50", "setting": "MDA-MB-231 breast", "result": 4.65, "unit": "µM"}, {"measurement": "TGI", "setting": "MDA-MB-231 breast", "result": "> 14.3", "unit": "µM"}, {"measurement": "GI50", "setting": "NCI-H460 lung", "result": 3.1, "unit": "µM"}, {"measurement": "TGI", "setting": "NCI-H460 lung", "result": 7.96, "unit": "µM"}, {"measurement": "GI50", "setting": "RXF 393 renal", "result": 2.28, "unit": "µM"}, {"measurement": "TGI", "setting": "RXF 393 renal", "result": 4.61, "unit": "µM"}, {"measurement": "GI50", "setting": "SNB-19 CNS", "result": 5.04, "unit": "µM"}, {"measurement": "TGI", "setting": "SNB-19 CNS", "result": "> 14.3", "unit": "µM"}, {"measurement": "GI50", "setting": "SW-620 colon", "result": 2.11, "unit": "µM"}, {"measurement": "TGI", "setting": "SW-620 colon", "result": 5.52, "unit": "µM"}]}
{"compound": "CCCN1CCN(c2ccc3nc(-c4ccc5nc(-c6ccc(OCC)c(OCC)c6)[nH]c5c4)[nH]c3c2)CC1", "values": [{"measurement": "GI50", "setting": "HCT-15 colon", "result": 1.87, "unit": "µM"}, {"measurement": "TGI", "setting": "HCT-15 colon", "result": 10.3, "unit": "µM"}, {"measurement": "GI50", "setting": "MDA-MB-231 breast", "result": 1.21, "unit": "µM"}, {"measurement": "TGI", "setting": "MDA-MB-231 breast", "result": 2.81, "unit": "µM"}, {"measurement": "GI50", "setting": "NCI-H460 lung", "result": 0.387, "unit": "µM"}, {"measurement": "TGI", "setting": "NCI-H460 lung", "result": 1.35, "unit": "µM"}, {"measurement": "GI50", "setting": "RXF 393 renal", "result": 0.27, "unit": "µM"}, {"measurement": "TGI", "setting": "RXF 393 renal", "result": 0.83, "unit": "µM"}, {"measurement": "GI50", "setting": "SNB-19 CNS", "result": 0.616, "unit": "µM"}, {"measurement": "TGI", "setting": "SNB-19 CNS", "result": 1.98, "unit": "µM"}, {"measurement": "GI50", "setting": "SW-620 colon", "result": 0.207, "unit": "µM"}, {"measurement": "TGI", "setting": "SW-620 colon", "result": 0.808, "unit": "µM"}, {"measurement": "GI50", "setting": "UACC-257 melanoma", "result": 0.64, "unit": "µM"}, {"measurement": "TGI", "setting": "UACC-257 melanoma", "result": 2.47, "unit": "µM"}]}
